Test results from US20250213587A1, “ITK INHIBITORS FOR INCREASING TH1 CELL ACTIVITY” (Corvus Pharmaceuticals, Inc., priority 2022, published 2025).

Columns and labels:
Cys442Ala ITK = Cys442Ala ITK (Homo sapiens, UniProt Q08881, C442A); assay: Inhibition of Cys442Ala ITK mutant; format: biochemical; details: similar conditions
Protocol: Two biochemical assays of kinase activity were employed. […] In the Lanthascreen assay each kinase (1.0 nM) was incubated with compound for 120 minutes at 22° C. in a buffer composed of 50 mM HEPES (pH 7.5), 10 mM MgCl2, 1 mM EGTA, and 0.01% Brij 35. The kinase reaction was initiated by the addition of ATP (50 μM final) and fluorescein-poly-Glu-Tyr peptide (200 nM final). The reaction was quenched after 60 minutes at 22° C., and phospho-peptide product detected by the addition of EDTA (10 mM final) and terbium PY20 antibody (2 nM final). The phospho-peptide product was measured by time-resolved fluorescence resonance energy transfer (TR FRET) between the terbium of the antibody and fluorescein of the phospho-peptide using an EnVision plate reader (PerkinElmer, Waltham, MA) equipped to detect the TR-FRET signal (excitation 320 nm, dual emission at 495 nm and 520 nm). All reagents including recombinant human kinases, fluorescein-poly-Glu-Tyr peptide, terbium PY20 antibody, and kinase buffer A were purchased from Invitrogen.
Inhibition of kinase activity was measured by construction of a concentration response curve of the inhibitor. […] The response reading was normalized according to equation 1 and plotted against the Log base 10 transformed values of the molar concentration of inhibitor. The IC50 value was obtained by fitting equation 2 to the data. […]

ITK Cys-442 = molecular target: T1, ITK Cys-442 (Homo sapiens, UniProt Q08881); assay: Mass spectrometry of chymotryptic digest of inhibited ITK; format: binding; details: LC MS/MS, 5-fold molar excess
T1 construct: The protein construct comprised amino acids 2 to 620 of ITK; purchased Cama Bioscience (so in the source)
Protocol: ITK was obtained as a glutathione S transferase (GST) fusion protein from Cama Bioscience (Product Number 08 081, Lot 13CBS 0356K). The protein was supplied at 586 μg/mL (5.9 μM ITK) in 50 mM TRIS, 150 mM NaCl, 0.05% Brij35, 1 mM dithiothreitol, and 10% glycerol at pH 7.5. The protein construct comprised amino acids 2 to 620 of ITK and is fused to GST at the N terminus of ITK (ITK GST). To prepare the samples for mass spectral analysis, a 2 μM sample of the ITK GST fusion protein was incubated with a 5-fold molar excess of CPI 818 (10 μM). A control, untreated sample of ITK GST was prepared in parallel. […] After the incubation phase, samples were frozen and stored at −80° C. Mass spectral analysis was conducted in collaboration with the Stanford University mass spectrometry facility. The control, untreated ITK GST fusion protein, and the CPI 818 inhibited sample were subjected to chymotrypsin digestion and then analyzed by liquid chromatography coupled with tandem mass spectrometry (LC MS/MS). […] Ions electrosprayed from this column were detected using an Orbitrap Fusion mass spectrometer (Thermo Scientific, San Jose, CA) operated in a data dependent fashion using both ETD and HCD fragmentation to improve detection efficiency of modified peptides. […] Peptides were constrained to 12 ppm mass accuracy for precursor ions, and 0.4 Da mass accuracies for fragment ions detected in the ion trap. […]

[1] = tested on: MRL lymphoproliferation strain mice; assay: MRL/lpr lupus model; details: mouse, in vivo
[2] = tested on: IFNγ production by CD4+ T cells; assay: T cell activation, IFNγ+CD4+ T cells; format: cell-based, human
Protocol: Fresh PBMCs from healthy human donors were centrifuged and reconstituted at 0.312×10^6 cells/mL in RPMI 1640 medium+10% heat-inactivated FBS+1× penicillin streptomycin and 100,000 cells/well were distributed into 24 well tissue culture plate. Cells were incubated at 37° C. for 1 hour, followed by the addition of CPI 596 or vehicle. The cells were then incubated at 37° C. for 1 hour, followed by the addition of […] anti CD3 and anti CD28 (both eBioscience). Cells were incubated at 37° C. for 6 days, with supplemental media supplied on day 3. On Day 6, the cells were transferred to a 96 deep well plate, washed, and treated with 50 nM phorbol 12-myristate 13-acetate, 1 μg/mL ionomycin, and 1 μg/mL brefeldin A, and then incubated at 37° C. for 4 hours. The cells were then fixed and permeabilized using eBioscience Fox3/transcription factor staining buffer. Cells were treated with Fc block (BioLegend) and then stained with CD3 BV605, CD45RA PerCP-Cy5.5, Tbet PE, IFNγ AF488, IL-4 APC (BioLegend), CD4 PE-Cy7, cPARP AF700 (BD Biosciences), and CD8 Krome Orange (Beckman Coulter). For flow cytometry, 300,000 cells were acquired on Cytoflex (Beckman Coulter). Data were analyzed using Flowjo software. The percentage of CD4^+ T cells that were positive for IFNγ and IL 4 were reported.

ITK = molecular target: T2, ITK (Homo sapiens, UniProt Q08881); assay: Human kinome profiling at 1.0 μM, ITK; format: biochemical; design: purchased Invitrogen
T2 sequence (Q08881 1-620): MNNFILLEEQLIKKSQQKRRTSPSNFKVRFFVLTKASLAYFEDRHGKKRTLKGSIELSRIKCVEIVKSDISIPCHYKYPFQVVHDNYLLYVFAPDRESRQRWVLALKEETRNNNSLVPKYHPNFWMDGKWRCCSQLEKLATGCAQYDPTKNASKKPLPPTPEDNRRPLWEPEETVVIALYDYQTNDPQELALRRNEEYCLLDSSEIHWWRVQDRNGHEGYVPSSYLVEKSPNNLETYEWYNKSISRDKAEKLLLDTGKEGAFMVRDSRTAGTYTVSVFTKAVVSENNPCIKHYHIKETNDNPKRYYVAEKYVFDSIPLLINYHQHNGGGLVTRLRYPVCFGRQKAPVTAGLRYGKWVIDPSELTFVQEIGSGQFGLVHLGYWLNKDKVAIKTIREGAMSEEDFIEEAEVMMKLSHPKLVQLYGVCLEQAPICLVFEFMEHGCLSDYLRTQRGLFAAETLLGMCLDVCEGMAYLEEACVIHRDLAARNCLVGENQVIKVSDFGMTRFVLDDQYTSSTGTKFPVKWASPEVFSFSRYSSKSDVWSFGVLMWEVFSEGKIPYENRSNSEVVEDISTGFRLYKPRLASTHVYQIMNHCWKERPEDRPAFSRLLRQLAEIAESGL

Cys442Ala ITK, sequence (Q08881 whole entry C442A): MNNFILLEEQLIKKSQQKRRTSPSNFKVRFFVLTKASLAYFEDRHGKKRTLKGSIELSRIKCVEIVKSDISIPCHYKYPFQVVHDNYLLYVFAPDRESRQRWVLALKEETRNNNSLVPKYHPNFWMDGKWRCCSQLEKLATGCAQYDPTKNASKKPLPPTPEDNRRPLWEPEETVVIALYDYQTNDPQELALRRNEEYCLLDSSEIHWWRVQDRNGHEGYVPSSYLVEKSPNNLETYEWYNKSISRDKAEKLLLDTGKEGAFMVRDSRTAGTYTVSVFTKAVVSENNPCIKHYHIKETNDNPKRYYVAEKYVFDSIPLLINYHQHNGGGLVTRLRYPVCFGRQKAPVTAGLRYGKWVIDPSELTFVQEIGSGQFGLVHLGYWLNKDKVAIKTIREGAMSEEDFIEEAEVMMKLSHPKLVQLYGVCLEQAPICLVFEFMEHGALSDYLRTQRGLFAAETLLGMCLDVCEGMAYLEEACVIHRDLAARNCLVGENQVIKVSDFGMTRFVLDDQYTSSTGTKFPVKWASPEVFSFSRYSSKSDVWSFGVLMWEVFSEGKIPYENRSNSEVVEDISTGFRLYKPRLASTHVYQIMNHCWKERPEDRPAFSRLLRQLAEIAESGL

- change of IC50 at Cys442Ala ITK compared to wild-type (Cys442Ala ITK): > 100 fold
- covalent modification of ITK peptides (ITK Cys-442): covalently labeling Cys-442
- inhibition at 1 µM (ITK): > 95%
SMILES: C=CC(=O)N1CCCN(C(=O)c2cc(Sc3cnc(NC(=O)C4CC4)s3)c(C)cc2OC)C[C@H]1C [CPI-818]
- lymphadenopathy [1]: inhibits
- proteinuria [1]: inhibits
- effect on IFNγ production ([2]; 1 μM, average across samples): 19%
- IFNγ-positivity ([2]; 10 μM): robustly inhibited
- effect on percentage of IFNγ+CD4+ T cells ([2]; up to 1 μM, average): < 20%
